Data: patent US11433136B2, “Polyacetal polymers, conjugates, particles and uses thereof” (THE GENERAL HOSPITAL CORPORATION, priority 2015, dated 2022)

How the values were obtained:
[1] = tested on: AK4.4 tumors; experiment: Orthotopic AK4.4 pancreatic (PDAC) tumors in lean and obese mice; assay type: in vivo, mice (FVB)
Method: (§1) Diet started at six weeks of age, continued for ten weeks (C57BL/6 and FVB), at which time tumors were implanted, and then continued until the end of experiments. In the spontaneous tumor models, diets were administered until tumor collection. Mice genetically deficient for leptin (ob/ob) on a standard chow for seven weeks gained weight compared to age matched WT mice (n=8-10/group for C57Bl/6, FVB and ob/ob, 4-10/group for KPC, 7-21/group for iKRAS). Left bars represent mice fed a low-fat diet, right bars represent mice fed a high fat diet for all groups except C57/B6 on the far right of the graph, in which the right bar represents the ob/ob mice. […] PAN02 and AK4.4 syngeneic tumors were orthotopically implanted in C57BL/6 and FVB mice respectively at ten weeks of diet (lean diet, left bars; and obese diet or ob/ob mice, right bars); ob/ob mice were implanted with PAN02 tumors at seven weeks of age. Tumors were collected 21 days later. Obese animals presented with higher tumor weights than lean counterparts in all models (n=8-10/group). FIG. 7D is representative images of mesenteric peritoneal dissemination in lean and obese mice implanted with PAN02 tumors. Mesenteries collected at the same time as tumors in FIG. 7C. FIG. 7E is a graph showing the quantification of mesenteric peritoneal metastasis in the PAN02 model. FIG. 7F is a graph showing the quantification of retro-peritoneal metastasis in the AK4.4 model. Data are shown as mean±standard error of the mean (SEM). P values were determined by the Student t-test. *, P<0.05; **, P<0.01; ***, P<0.001.
(§2) Expression of genes associated with AT-1 pathway activation and fibrosis/desmoplasia is increased in PAN02 (FIG. 10A) and AK4.4 (FIG. 10B) tumors from obese mice (right bars) in comparison to lean mice (left bars). […] Data normalized to lean group. 3-4 samples per group pooled in one single PCR array fibrosis gene set plate. […] Of note, similar to αSMA, the changes of AT1, as well as other desmoplasia related markers, were relatively mild in the lean setting. […] Data are shown as mean±SEM with the exception of FIGS. 10A and 10B. P values were determined by the Student t-test unless otherwise stated. *, P<0.05; **, P<0.01, ***p<0.001.
Quantification of total and lectin-positive vessel area in AK4.4 tumors. Obese mice (right bars) presented with decreased perfusion (n=5-12 tumors/group) compared to lean mice (left bars). […] Obese mice presented with increased expression of the hypoxia marker Hif-1α in tumors. […] Doxorubicin quantified via immunofluorescence (n=4 tumors/group). […] AK4.4 syngeneic tumors were orthotopically implanted at ten weeks of diet; treatments were initiated at day 7 post-implantation and tumors resected at day 19. […] Data in FIGS. 17A, 17C and 17D, are shown as mean±SEM. P values were determined by the Student t-test unless otherwise stated. *, P<0.05.
FIGS. 18A, 18B, 18C, 18D, 18E, 18F, and 18G show the additional effects of AT-1 inhibition on obesity-aggravated desmoplasia, perfusion and drug delivery. […] Scale bar: 30 μm (left panels), 500 μm (right panel). […] FIG. 18E is a western blot showing a decrease in αSMA expression in PAN02 tumors implanted in obese AT1 KO mice compared with obese WT mice (bands are part of a larger WB. Lean control group is depicted in FIG. 18F). […] Data in FIGS. 18D, 18F and 18G are shown as mean±SEM. In FIGS. 18C and 18F, far left bars represent lean mice, middle left bars represent lean mice treated with losartan, middle right bars represent obese mice, and […] bars represent obese mice treated with losartan.

[2] = tested on: PAN02 tumors; experiment: Orthotopic PAN02 pancreatic (PDAC) tumors in lean and obese mice; assay type: in vivo, mice (C57BL/6)
Method: as §1
FIG. 9A is representative pictures of CD31(+) vessels and lectin in PAN02 tumors. Scale bars: 200 μm. FIG. 9B is a graph showing the quantification of the total (CD31+) and lectin-positive (CD31/lectin+) vessel area in PAN02 tumors. Obese mice (right bars) presented with decreased perfusion (n=3-6 tumors/group) compared to lean mice (left bars). […] Obese mice presented with increased hypoxia in tumors. […] 5-FU quantified via high performance liquid chromatography (HPLC). […] PAN02 tumors were orthotopically implanted at ten weeks of diet, treatments were initiated at day seven post-implantation and tumors resected at day 19. […] Data are shown as mean±SEM. P values were determined by the Student t-test unless otherwise stated. *, P<0.05; **, P<0.01
as §2
Obesity promoted infiltration of myeloid Gr-1(+)F4/80(−) cell population in PAN02 tumors in obese mice. FIG. 11B is a quantification normalized by total viable cells (i) or total CD45 leucocytes (ii) (n=4-6 tumors/group). FIG. 11C is representative FACS scatter plots of CD45(+)CD11b(+)Ly6G(+) tumor associated neutrophils (TANs), CD8(+) cytotoxic lymphocytes and CD4(+)CD25(+) regulatory T cells in PAN02 tumors in lean and obese setting. […] Obese promoted an increase in TANs and a decrease in CD8 cells in PAN02 tumors. A strong tendency for increased Tregs was also observed. […] Scale bars: 1 mm (whole tumors) and 100 μm (caption). […] (n=4-6 tumors/group). For bar graphs in FIGS. 11A, 11B, 11D, and 11E, left bars represent lean mice, and right bars represent obese mice. For the bar graph in FIG. 11J, left bars represent obese mice, and right bars represent obese mice with TAN depletion. Data are shown as mean±SEM. […]

[3] = obese vs lean, treatment from day 7, tumors resected day 19
[4] = losartan with 5-FU, lean and obese

Row | delivery of chemotherapy to tumors, 5-FU quantified via HPLC ([2]; obese vs lean mice) | chemotherapy delivery to tumors ([1]; obese but not lean mice) | chemotherapy delivery to tumors ([2]; obese but not lean mice) | SMILES | response to chemotherapy (tumor growth) [1, 3] | response to chemotherapy (tumor growth) [2, 3] | tumor αSMA protein expression ([1]; lean and obese) | mRNA expression of markers of tumor fibrosis/desmoplasia ([1]; lean mice) | response to chemotherapy with AT1 blockade [1, 4] | tumor perfusion ([1]; obese but not lean mice) | cytokine expression in tumors (multiplex protein) ([1]; obese mice) | mRNA expression of markers of tumor fibrosis/desmoplasia ([1]; obese mice) | tumor fibrillar collagen (SHG) and collagen-1 expression ([1]; obese mice) | expression of AT1 signaling and desmoplasia-related markers (western blotting) ([1]; obese vs lean) | response to chemotherapy with AT1 blockade [2, 4] | tumor αSMA protein expression ([2]; obese and lean) | tumor perfusion ([2]; obese but not lean mice) | cytokine expression in tumors (multiplex protein) ([2]; obese mice)
1 | decreased delivery |  |  | O=c1[nH]cc(F)c(=O)[nH]1 [Example 5-FU, 5-fluorouracil] | less effective in preventing tumor growth in obese animals | less effective in preventing PAN02 tumor growth in obese animals than in lean |  |  |  |  |  |  |  |  |  |  |  | 
2 |  | increase chemotherapy delivery | increase chemotherapy delivery | CCCCc1nc(Cl)c(CO)n1Cc1ccc(-c2ccccc2-c2nn[nH]n2)cc1 [losartan] |  |  | reduced tumor αSMA protein expression more dramatically in the obese setting | did not alter these markers in lean mice | improved response to chemotherapy in both lean and obese settings but with higher magnitude in obese setting | tended to improve perfusion | reduced the expression of multiple cytokines including IL-1 | reverted by losartan | reduced tumor fibrillar collagen (top panels) as well as collagen-1 expression | normalized the obesity-augmented expression | improved response to chemotherapy in obese, but not in lean animals | tendency for reduced tumor αSMA protein expression in obese but not lean setting | tended to improve perfusion | reduced the expression of multiple cytokines including IL-1
